Common to all, as to format: cell-based
Assay [1] concerns the target T1, hGIPR (Homo sapiens, UniProt P48546).
T1 construct: expressed in transfected cells
T1 sequence (P48546 22-466): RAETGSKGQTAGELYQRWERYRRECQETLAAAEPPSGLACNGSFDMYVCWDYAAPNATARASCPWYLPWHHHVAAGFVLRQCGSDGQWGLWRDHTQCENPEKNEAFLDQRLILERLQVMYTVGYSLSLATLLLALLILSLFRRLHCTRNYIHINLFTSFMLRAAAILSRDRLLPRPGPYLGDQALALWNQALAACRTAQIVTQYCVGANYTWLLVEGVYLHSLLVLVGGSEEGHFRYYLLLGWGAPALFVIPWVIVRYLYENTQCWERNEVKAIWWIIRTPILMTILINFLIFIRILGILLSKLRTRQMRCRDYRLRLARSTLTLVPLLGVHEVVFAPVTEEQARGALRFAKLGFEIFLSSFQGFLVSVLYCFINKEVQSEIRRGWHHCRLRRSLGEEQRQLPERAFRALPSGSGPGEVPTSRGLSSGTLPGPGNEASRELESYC
As to the kind of experiment: Functional cAMP formation (HTRF) in HEK-293 clonal cells expressing hGIPR, 0.1% bovine casein, without or with 1.0% human serum albumin. The following applies: for EC50: geometric mean. The gist of the method: (§1)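 Cells were stimulated with peptide for 30 min at 37° C, then intracellular cAMP was measured by competitive HTRF (665/620 nm ratio) and converted to nM using a cAMP standard curve. Relative EC50 and Emax came from four-parameter logistic fits of percent maximal response against peptide concentration.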
(cAMP levels reflect the balance of adenylyl cyclase and phosphodiesterase activity.)

Assay [2] has as its target T2, hGCGR (Homo sapiens, UniProt P47871).
T2 construct: expressed in transfected cells
Description: Functional cAMP formation (HTRF) in HEK-293 clonal cells expressing hGCGR, 0.1% bovine casein, without or with 1.0% human serum albumin. The procedure, abridged:
as §1

Assay [3] concerns the target hGLP-1R (Homo sapiens, UniProt P43220). As to the kind of experiment: Functional cAMP formation (HTRF) in HEK-293 clonal cells expressing hGLP-1R, 0.1% bovine casein, without or with 1.0% human serum albumin. More on the design: expressed in transfected cells. Conditions: for EC50: geometric mean. The gist of the method: as §1
Where [4] appears, read: HEK293, 0.1% bovine casein and 1.0% human serum albumin, 37° C., percent of maximal response to GIP(1-42)NH2, read-out: hGIPR Emax, % ± SEM.
[5] abbreviates: 0.1% bovine casein and 1.0% human serum albumin, 37° C., geometric mean, read-out: hGCGR EC50, nM (SEM, n).

Where two headings read alike, the source gives them in different places.

The term Emax denotes the greatest response seen or fitted, relative to the assay's reference. In general, EC50 refers to the midpoint of the concentration-response curve.

Chain of hGLP-1R (P43220 24-463): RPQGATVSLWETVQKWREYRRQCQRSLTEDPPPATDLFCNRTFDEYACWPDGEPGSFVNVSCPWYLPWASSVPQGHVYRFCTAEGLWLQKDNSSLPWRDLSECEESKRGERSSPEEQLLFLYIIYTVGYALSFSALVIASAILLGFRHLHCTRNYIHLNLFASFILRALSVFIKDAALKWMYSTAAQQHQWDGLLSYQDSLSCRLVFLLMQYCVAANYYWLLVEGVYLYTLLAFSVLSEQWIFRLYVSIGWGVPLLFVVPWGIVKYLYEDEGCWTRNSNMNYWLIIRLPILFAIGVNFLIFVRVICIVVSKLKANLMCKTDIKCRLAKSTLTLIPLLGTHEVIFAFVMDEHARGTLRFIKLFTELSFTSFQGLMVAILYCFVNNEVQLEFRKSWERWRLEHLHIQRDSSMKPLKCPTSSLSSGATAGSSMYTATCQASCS
T2 sequence (P47871 26-477): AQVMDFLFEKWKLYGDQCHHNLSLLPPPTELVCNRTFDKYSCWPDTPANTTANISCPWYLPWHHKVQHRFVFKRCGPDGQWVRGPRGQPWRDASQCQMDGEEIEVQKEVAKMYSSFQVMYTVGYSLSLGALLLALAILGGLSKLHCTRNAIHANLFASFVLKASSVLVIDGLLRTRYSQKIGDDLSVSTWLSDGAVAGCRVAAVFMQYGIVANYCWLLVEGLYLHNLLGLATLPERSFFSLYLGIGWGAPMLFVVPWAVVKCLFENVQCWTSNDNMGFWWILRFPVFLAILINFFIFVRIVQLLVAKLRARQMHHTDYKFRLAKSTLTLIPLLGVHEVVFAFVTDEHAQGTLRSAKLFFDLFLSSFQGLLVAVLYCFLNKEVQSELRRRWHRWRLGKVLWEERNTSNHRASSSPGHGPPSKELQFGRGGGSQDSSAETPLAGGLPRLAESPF

As for `CC[C@H](C)[C@H](NC(=O)[C@H](CC(C)C)NC(=O)[C@](C)(Cc1ccc(O)cc1)NC(=O)[C@@H](CCC(=O)O)NC(=O)[C@@H](NC(=O)[C@H](Cc1ccccc1)NC(=O)[C@H](CCC(=O)O)NC(=O)C(C)(C)NC(=O)[C@H](CCC(N)=O)NC(=O)[C@H](C)NC(=O)[C@H](CCCCNC(=O)COCCOCCNC(=O)COCCOCCNC(=O)CC[C@H](NC(=O)CCCCCCCCCOc1ccc(C(=O)O)cc1)C(=O)O)NC(=O)[C@H](CCCN)NC(=O)[C@H](CC(=O)O)NC(=O)[C@H](CC(C)C)NC(=O)[C@](C)(CC(C)C)NC(=O)[C@@H](NC(=O)C(C)(C)NC(=O)[C@H](Cc1ccncc1)NC(=O)[C@H](CC(=O)O)NC(=O)[C@H](CO)NC(=O)[C@@H](NC(=O)[C@](C)(Cc1ccccc1F)NC(=O)[C@@H](NC(=O)CNC(=O)[C@H](CCC(=O)O)NC(=O)C(C)(C)NC(=O)[C@@H](N)Cc1ccc(O)cc1)[C@@H](C)O)[C@@H](C)O)[C@@H](C)CC)[C@@H](C)CC)C(=O)N[C@@H](CCC(=O)O)C(=O)NCC(=O)NCC(=O)N1CCC[C@H]1C(=O)N[C@@H](CO)C(=O)N[C@@H](CO)C(=O)NCC(=O)N[C@@H](C)C(=O)N1CCC[C@H]1C(=O)N1CCC[C@H]1C(=O)N1CCC[C@H]1C(=O)N[C@@H](CO)C(=O)N[C@@H](CCCCNC(=O)COCCOCCNC(=O)COCCOCCNC(=O)CC[C@H](NC(=O)CCCCCCCCCOc1ccc(C(=O)O)cc1)C(=O)O)C(N)=O` [Example 245], the Emax in assay [1] (HEK293, read-out: hGIPR Emax, % ± SEM, 0.1% bovine casein and 1.0% human serum albumin, 37° C., percent of maximal response to GIP(1-42)NH2) worked out at 81.9%; in assay [1] (HEK293, read-out: hGIPR Emax, % ± SEM, percent of maximal response to GIP(1-42)NH2, 37° C., 0.1% bovine casein, arithmetic mean), 96.7%; in assay [3] (HEK293, read-out: hGLP-1R Emax, % ± SEM, 0.1% bovine casein and 1.0% human serum albumin, 37° C., percent of maximal response to GLP-1(7-36)NH2) it was 93.8%; in assay [3] (HEK293, read-out: hGLP-1R Emax, % ± SEM, percent of maximal response to GLP-1(7-36)NH2, 37° C., 0.1% bovine casein, arithmetic mean), 88.9%. Besides, the EC50 in assay [1] (hGIPR EC50, nM (SEM, n), cAMP, incubated at 37° C., 0.1% bovine casein (no human serum albumin)) is 0.0195 nM; in assay [2] (hGCGR EC50, nM (SEM, n), 0.1% bovine casein and 1.0% human serum albumin, 37° C., geometric mean) it was over 9950 nM; in assay [2] (hGCGR EC50, nM (SEM, n), cAMP, incubated at 37° C., 0.1% bovine casein (no human serum albumin), geometric mean), over 9950 nM; in assay [3] (hGLP-1R EC50, nM (SEM, n), 0.1% bovine casein and 1.0% human serum albumin, 37° C.), 27 nM; in assay [3] (hGLP-1R EC50, nM (SEM, n), cAMP, incubated at 37° C., 0.1% bovine casein (no human serum albumin)) it was 1.88 nM.

For the compound `CCCCCCCCCCCC(=O)N[C@@H](CCC(=O)NCCOCCOCC(=O)NCCOCCOCC(=O)NCCCC[C@H](NC(=O)[C@H](CCCN)NC(=O)[C@H](CC(=O)O)NC(=O)[C@H](CC(C)C)NC(=O)[C@](C)(CC(C)C)NC(=O)[C@@H](NC(=O)C(C)(C)NC(=O)[C@H](Cc1ccc(O)cc1)NC(=O)[C@H](CC(=O)O)NC(=O)[C@H](CO)NC(=O)[C@@H](NC(=O)[C@](C)(Cc1ccccc1F)NC(=O)[C@@H](NC(=O)CNC(=O)[C@H](CCC(=O)O)NC(=O)C(C)(C)NC(=O)[C@@H](N)Cc1ccc(O)cc1)[C@@H](C)O)[C@@H](C)O)[C@@H](C)CC)C(=O)N[C@@H](C)C(=O)N[C@@H](CCC(N)=O)C(=O)NC(C)(C)C(=O)N[C@@H](CCC(=O)O)C(=O)N[C@@H](Cc1ccccc1)C(=O)N[C@H](C(=O)N[C@H](CCC(=O)O)C(=O)N[C@@](C)(Cc1ccc(O)cc1)C(=O)N[C@@H](CC(C)C)C(=O)N[C@H](C(=O)N[C@@H](CCCCNC(=O)COCCOCCNC(=O)COCCOCCNC(=O)CC[C@H](NC(=O)CCCCCCCCCCC)C(=O)O)C(=O)NCC(=O)NCC(=O)N1CCC[C@H]1C(=O)N[C@@H](CO)C(=O)N[C@@H](CO)C(=O)NCC(=O)N[C@@H](C)C(=O)N1CCC[C@H]1C(=O)N1CCC[C@H]1C(=O)N1CCC[C@H]1C(=O)N[C@@H](CO)C(N)=O)[C@@H](C)CC)[C@@H](C)CC)C(=O)O` [Example 301], the Emax amounted to 85.5% in assay [1] (setting [4]) and 97.4% in assay [1] (HEK293, cAMP, 37° C., 0.1% bovine casein, percent of maximal response to GIP(1-42)NH2, arithmetic mean, read-out: hGIPR Emax, % ± SEM). Besides, the EC50 in assay [1] (cAMP, 37° C., 0.1% bovine casein (no human serum albumin), read-out: hGIPR EC50, nM (SEM, n)) is 0.0128 nM; in assay [2] (setting [5]), over 9950 nM; in assay [2] (cAMP, 37° C., 0.1% bovine casein (no human serum albumin), geometric mean, read-out: hGCGR EC50, nM (SEM, n)), over 9950 nM; in assay [3] (cAMP, 37° C., 0.1% bovine casein (no human serum albumin), read-out: hGLP-1R EC50, nM (SEM, n)) it was 0.175 nM.

Take `CC[C@H](C)[C@H](NC(=O)[C@H](CC(C)C)NC(=O)[C@](C)(Cc1ccc(O)cc1)NC(=O)[C@@H](CCC(=O)O)NC(=O)[C@@H](NC(=O)[C@H](Cc1ccccc1)NC(=O)[C@H](CCC(=O)O)NC(=O)C(C)(C)NC(=O)[C@H](CCC(N)=O)NC(=O)[C@H](C)NC(=O)[C@H](CCCCNC(=O)COCCOCCNC(=O)CC[C@H](NC(=O)CCCCCCCCCOc1ccc(C(=O)O)cc1)C(=O)O)NC(=O)[C@H](CCCN)NC(=O)[C@H](CC(=O)O)NC(=O)[C@H](CC(C)C)NC(=O)[C@](C)(CC(C)C)NC(=O)[C@@H](NC(=O)C(C)(C)NC(=O)[C@H](Cc1ccc(O)cc1)NC(=O)[C@H](CC(=O)O)NC(=O)[C@H](CO)NC(=O)[C@@H](NC(=O)[C@](C)(Cc1ccccc1F)NC(=O)[C@@H](NC(=O)CNC(=O)[C@H](CCC(=O)O)NC(=O)C(C)(C)NC(=O)[C@@H](N)Cc1ccc(O)cc1)[C@@H](C)O)[C@@H](C)O)[C@@H](C)CC)[C@@H](C)CC)C(=O)N[C@@H](CCCCNC(=O)COCCOCCNC(=O)CC[C@H](NC(=O)CCCCCCCCCOc1ccc(C(=O)O)cc1)C(=O)O)C(=O)NCC(=O)NCC(=O)N1CCC[C@H]1C(=O)N[C@@H](CO)C(=O)N[C@@H](CO)C(=O)NCC(=O)N[C@@H](C)C(=O)N1CCC[C@H]1C(=O)N1CCC[C@H]1C(=O)N1CCC[C@H]1C(=O)N[C@@H](CO)C(N)=O` [Example 373]: the Emax in assay [1] (HEK293, read-out: hGIPR Emax, % ± SEM, cAMP, 37° C., 0.1% bovine casein and 1.0% human serum albumin, percent of maximal response to GIP(1-42)NH2) turned out to be 82.4%; in assay [3] (HEK293, read-out: hGLP-1R Emax, % ± SEM, cAMP, 37° C., 0.1% bovine casein and 1.0% human serum albumin, percent of maximal response to GLP-1(7-36)NH2) it was 112%. Besides, the 50% effective concentration (EC50) in assay [1] (hGIPR EC50, nM (SEM, n), cAMP, 37° C., 0.1% bovine casein (no human serum albumin)) was 0.0152 nM; in assay [2] (hGCGR EC50, nM (SEM, n), cAMP, 37° C., 0.1% bovine casein (no human serum albumin), geometric mean), over 9950 nM; in assay [2] (hGCGR EC50, nM (SEM, n), cAMP, 37° C., 0.1% bovine casein and 1.0% human serum albumin, geometric mean (SEM, n)), over 9950 nM; in assay [3] (hGLP-1R EC50, nM (SEM, n), cAMP, 37° C., 0.1% bovine casein (no human serum albumin)), 0.329 nM.

In the case of `CC[C@H](C)[C@H](NC(=O)[C@H](CC(C)C)NC(=O)[C@](C)(Cc1ccc(O)cc1)NC(=O)[C@@H](CCC(=O)O)NC(=O)[C@@H](NC(=O)[C@H](Cc1ccccc1)NC(=O)[C@H](CCC(=O)O)NC(=O)C(C)(C)NC(=O)[C@H](CCC(N)=O)NC(=O)[C@H](C)NC(=O)[C@H](CCCCNC(=O)COCCOCCNC(=O)COCCOCCNC(=O)CC[C@H](NC(=O)CCCCCCCCCCCCC(=O)O)C(=O)O)NC(=O)[C@H](CCCN)NC(=O)[C@H](CC(=O)O)NC(=O)[C@H](CC(C)C)NC(=O)[C@](C)(CC(C)C)NC(=O)[C@@H](NC(=O)C(C)(C)NC(=O)[C@H](Cc1ccc(O)cc1)NC(=O)[C@H](CC(=O)O)NC(=O)[C@H](CO)NC(=O)[C@@H](NC(=O)[C@](C)(Cc1ccccc1F)NC(=O)[C@@H](NC(=O)CNC(=O)[C@H](CCC(=O)O)NC(=O)C(C)(C)NC(=O)[C@@H](N)Cc1ccc(O)cc1)[C@@H](C)O)[C@@H](C)O)[C@@H](C)CC)[C@@H](C)CC)C(=O)N[C@@H](CCCCNC(=O)COCCOCCNC(=O)COCCOCCNC(=O)CC[C@H](NC(=O)CCCCCCCCCCCCC(=O)O)C(=O)O)C(=O)NCC(=O)NCC(=O)N1CCC[C@H]1C(=O)N[C@@H](CO)C(=O)N[C@@H](CO)C(=O)NCC(=O)N[C@@H](C)C(=O)N1CCC[C@H]1C(=O)N1CCC[C@H]1C(=O)N1CCC[C@H]1C(=O)N[C@@H](CO)C(N)=O` [Example 231], the EC50 is 2.46 nM in assay [1] (0.1% bovine casein and 1.0% human serum albumin, 37° C., read-out: hGIPR EC50, nM (SEM, n)); 0.0184 nM in assay [1] (cAMP, incubated at 37° C., 0.1% bovine casein (no human serum albumin), read-out: hGIPR EC50, nM (SEM, n)); over 9950 nM in assay [2] (setting [5]); over 9950 nM in assay [2] (cAMP, incubated at 37° C., 0.1% bovine casein (no human serum albumin), geometric mean, read-out: hGCGR EC50, nM (SEM, n)); 1.22 nM in assay [3] (cAMP, incubated at 37° C., 0.1% bovine casein (no human serum albumin), read-out: hGLP-1R EC50, nM (SEM, n)). For the same compound, the Emax in assay [1] (setting [4]) came out at 85.4%; in assay [3] (HEK293, 0.1% bovine casein and 1.0% human serum albumin, 37° C., percent of maximal response to GLP-1(7-36)NH2, read-out: hGLP-1R Emax, % ± SEM) it was 109%.
